Consider 10 compounds from patent US7001888B2, “Compositions and methods for treating cancer” (Threshold Pharmaceuticals, Inc., priority 2002, dated 2006).

This experiment concerns HepG2 cells. In words: Uptake of compounds by HepG2 cells. The conditions noted are these: for Uptake: 100 μM compound, 1 hour at 37° C., per mg protein, iodo conjugates by ICP-MS iodide content, 14C controls by scintillation counting; for Effect of D-glucose on uptake: D-glucose (10 mM) present; for Effect of L-glucose on uptake: L-glucose (10 mM) present; for Relative uptake among the compounds of the invention tested: comparison of Table 1 values. In kind it is cell-based, human. As to the method:
This example describes assays conducted to determine to what extent certain iodo-containing conjugates of the invention are taken up or transported into cancer cells. As a positive control, the uptake of ^14C-labeled-2-deoxy-D-glucose, a compound transported into human cells via glucose transporters and phosphorylated by hexokinase, and thus retained in the cell, was measured. As a negative control, the uptake of ^14C-labeled-3-O-methyl-glucose, which is transported into the cell via the glucose transporters but is not phosphorylated and so is not retained, was measured.
The control assay was conducted as follows. HepG2 cells were plated at a density of 2×10^5 cells per well into a 24 well plate, and the plates were maintained in 37° C. incubator (5% CO2) for 2 days. Prior to the uptake assay, the HepG2 cells were rinsed twice with pre-warmed (37° C.) phosphate-buffered saline (PBS) containing 1 mM CaCl2, 1 mM MgCl2 and 0.3% BSA. The rinsed HepG2 cells were then incubated with 270 μl of buffer (PBS/Ca/Mg/BSA) in the absence or presence of D-glucose (10 mM), L-glucose (10 mM), cytochalasin B (10 μM) or phloretin (0.3 mM) for 10 min at 37° C. Then, 30 μl of ^14C-2DG (final concentration: 100 μM, 0.1 μCi) were added to each well, and the cells were incubated for 1 hour at 37° C. The plate was placed on ice, and the cells were washed rapidly three times with cold PBS buffer (4° C.) containing 1 mM CaCl2 and MgCl2. The cells were then lysed with 150 μl of 1% Triton X-100, and the lysate was transferred to a scintillation vial. The well was rinsed with 200 μl ddH2O, and the rinsate was transferred to the same vial. Radioactivity was quantified using a scintillation counter. The protein concentration of each sample was determined using a BCA kit (Sigma, St Louis, Mo.). The amount of uptake of ^14C-2DG is reported below in units of nmole/mg protein/60 min.
To measure uptake of the iodo-containing compounds of the invention, HepG2 cells were plated at a density of 2×10^5 cells per well into a 24 well plate, and the plates were maintained in 37° C. incubator (5% CO2) for 2 days. Prior to the uptake assay, the HepG2 cells were rinsed twice with pre-warmed (37° C.) phosphate-buffered saline (PBS) containing 1 mM CaCl2, 1 mM MgCl2 and 0.3% BSA. The HepG2 cells were then incubated with 270 μl of buffer (PBS/Ca/Mg/BSA) in the absence or presence of D-glucose (10 mM), L-glucose (10 mM), cytochalasin B (10 μM) or phloretin (0.3 mM) for 10 min at 37° C. Then, 30 μl of each of the conjugates (final concentration: 100 μM) were added to individual test wells, and the plates were incubated for 1 hour at 37° C. The plate was placed on ice, and then, the cells were washed rapidly three times with cold PBS buffer (4° C.) containing 1 mM CaCl2 and MgCl2. The cells were lysed by the sequential addition of 150 μl of 1% Triton X-100 and 100 μl of ddH2O into each well. Lysates from six replicate wells were pooled together for each sample (volume per sample: 1.5 ml). The protein concentration of each sample was determined using a BCA kit (Sigma, St Louis, Mo.). Samples were diluted by addition of 4 ml of ddH2O (final volume per sample: 5.5 ml), and the samples treated with the iodo-containing conjugates were analyzed for iodide content by inductively coupled plasma-mass spectrometry (West Coast Analytical Service, Santa Fe Spring, Calif.). The amount of uptake of iodide-containing glucose conjugate is reported as nmole/mg protein/60 min.

Values joined by “and” are separate entries in the source; they are usually repeats but may differ in a detail not shown here. Equal entries are not always repeated.

On to “4-(iodophenyl)thiocarbamoyl glucosamine [TP022]”, for which the Uptake is 0.90 nmole/mg/60 min and 0.97 nmole/mg/60 min.
Regarding 4-iodobenzyl glucosamine [TP012], the Uptake was 2.8 +/− 0.14 (n = 4) nmole/mg/60 min, the “Effect of D-glucose on uptake” value is reported as “not blocked”, the “Effect of L-glucose on uptake” value is “not blocked” and the “Relative uptake among the compounds of the invention tested” value is reported as “most taken up by the cells”.
4-iodohippuroyl glucosamine [TP011]: the Uptake came to 0.5 nmole/mg/60 min, the “Effect of D-glucose on uptake” value is “blocked” and the “Effect of L-glucose on uptake” value is “not L-glucose”.
Turning to `CO[C@@H]([C@H](O)[C@H](O)CO)[C@@H](O)C=O` [3-O-Methyl Glucose, 3-O-methyl-glucose, reference compound], the Uptake stood at 0.2 nmole/mg/60 min.
`O=CC[C@@H](O)[C@H](O)[C@H](O)CO` [Compound 2-DG, 2-deoxy-D-glucose, reference compound]: the Uptake was 51.8 +/− 4.3 (n = 3) nmole/mg/60 min.
Same read-out and setting: with `O=C(NCCN[C@H]1C(O)O[C@H](CO)[C@@H](O)[C@@H]1O)c1ccc(I)cc1` (stereo partly shown) [TP014] the figure was 1.2 nmole/mg/60 min; with `O=C(COCCOCCOCCOCCOCc1ccc(I)cc1)NC1C(O)O[C@H](CO)[C@@H](O)[C@@H]1O` (stereo partly shown) [TP017], 0.16 nmole/mg/60 min and 0.18 nmole/mg/60 min.
As to `OC[C@H]1OC(O)[C@H](N(C/C=C\I)C/C=C\I)[C@@H](O)[C@@H]1O` (stereo partly shown) [TP018, bis-Z-3-iodopropen-2-yl glucosamine], the Uptake is 2.28 nmole/mg/60 min and 2.31 nmole/mg/60 min; the “Relative uptake among the compounds of the invention tested” value is listed as “most taken up by the cells”.
As for `OC[C@H]1OC(O)[C@H](N(C/C=C/I)C/C=C/I)[C@@H](O)[C@@H]1O` (stereo partly shown) [TP019, bis-E-3-iodopropen-2-yl glucosamine], the Uptake was 1.39 nmole/mg/60 min and 1.00 nmole/mg/60 min.
Same read-out and setting: with `O=S(=O)(N[C@H]1C(O)O[C@H](CO)[C@@H](O)[C@@H]1O)c1ccc(I)cc1` (stereo partly shown) [TP020, Pipsyl glucosamine] the figure was 0.83 nmole/mg/60 min and 0.81 nmole/mg/60 min.
